Experimental data as given in the supplement of paper PMC8967900.

Assays:
Test in all cases: selective drug sensitivity score (sDSS, relative to normal bone marrow) (sDSS (score)); higher = more potent and effective on the cell line relative to normal bone marrow cells
Settings in all cases: 72 h
MHH-CALL-2 = system: MHH-CALL-2
MOLT-16 = system: MOLT-16
COG-LL-355h = system: COG-LL-355h
P12-ICHIKAWA = system: P12-ICHIKAWA
TMD5 = system: TMD5
NALM-16 = system: NALM-16
COG-LL-332h = system: COG-LL-332h
MHH-CALL-3 = system: MHH-CALL-3
KASUMI-9 = system: KASUMI-9
HAL-01 = system: HAL-01
DND-41 = system: DND-41
KOPN-8 = system: KOPN-8
RCH-ACV = system: RCH-ACV
REH = system: REH
TANOUE = system: TANOUE
COG-LL-402h = system: COG-LL-402h
ALL-SIL = system: ALL-SIL
RPMI-8402 = system: RPMI-8402
MOLT-4 = system: MOLT-4
MN-60 = system: MN-60
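Also: ALL cell lines in 384-well plates, five doses spanning 10,000-fold, each plate scaled between vehicle and 100 µmol/L benzalkonium chloride controls, sDSS an adapted area-under-curve metric.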

Structure (SMILES)	selective drug sensitivity score (MHH-CALL-2)	selective drug sensitivity score (MOLT-16)	selective drug sensitivity score (COG-LL-355h)	selective drug sensitivity score (P12-ICHIKAWA)	selective drug sensitivity score (TMD5)	selective drug sensitivity score (NALM-16)	selective drug sensitivity score (COG-LL-332h)	selective drug sensitivity score (MHH-CALL-3)	selective drug sensitivity score (KASUMI-9)	selective drug sensitivity score (HAL-01)	selective drug sensitivity score (DND-41)	selective drug sensitivity score (KOPN-8)	selective drug sensitivity score (RCH-ACV)	selective drug sensitivity score (REH)	selective drug sensitivity score (TANOUE)	selective drug sensitivity score (COG-LL-402h)	selective drug sensitivity score (ALL-SIL)	selective drug sensitivity score (RPMI-8402)	selective drug sensitivity score (MOLT-4)	selective drug sensitivity score (MN-60)
COc1cc(N2CCC(N3CCN(C)CC3)CC2)ccc1Nc1ncc(Cl)c(Nc2ccccc2P(C)(C)=O)n1 [Brigatinib] (top concentration 1000 nM)	7.66	-3.34	2.86	-3.34	-2.04	-3.14	-3.34	-3.34	3.56	6.06	7.16	-3.34	8.86	-3.34	-3.34	-2.04	-3.34	-2.44	0.36	-2.54
C=C(c1ccc(C(=O)O)cc1)c1cc2c(cc1C)C(C)(C)CCC2(C)C [Bexarotene] (top concentration 10000 nM)	3.5	1.7	-5.1	-0.5	0.1	-4.1	-1.7	10.2	-3.4	-0.9	-5.3	8	-5.1	-3.8	-5.3	-5.3	-4.2	-4	2.2	-5.3
Cc1cc(-c2nc(-c3ccc(OC(F)(F)F)cc3)no2)nn1Cc1ccnc(N2CCN(C3CC3)CC2)c1 [BAY_87-2243] (top concentration 1000 nM)	8.64	22.9	10.8	23.9	-1.16	4.24	5.54	-6.36	5.24	-0.66	6.84	6.34	14.4	17.1	25.2	-3.16	10.1	28	25.1	25.6
NS(=O)(=O)OC[C@@H]1C[C@@H](n2ccc3c(N[C@H]4CCc5ccccc54)ncnc32)C[C@@H]1O [Pevonedistat] (top concentration 10000 nM)	10	16.7	6	16.7	6.7	4.1	20.2	7.4	6.2	-3.5	10.1	13	12.3	10.3	-3.1	8.5	13.1	16.2	14	6.5
COc1cccc2c1C(=O)c1c(O)c3c(c(O)c1C2=O)C[C@@](O)(C(=O)CO)C[C@@H]3O[C@H]1C[C@H](N)[C@H](O)[C@H](C)O1 [Doxorubicin] (top concentration 1000 nM)	10.4	16.1	3.98	5.08	3.18	-1.82	11.3	14.8	7.48	1.38	1.58	13.3	10.6	9.28	-7.62	13.1	1.68	5.58	10.5	-2.12
Cn1nccc1Nc1nccc(-c2ccn([C@H](CO)c3ccc(Cl)c(F)c3)c(=O)c2)n1 [Ravoxertinib] (top concentration 10000 nM)	8.4	4	7.7	2.1	3.2	-1.6	4.1	9.7	5.3	1.9	4.5	13.6	4.5	1.2	-3.2	3.4	-3.2	1.9	-1.2	-3.2
Cn1cncc1[C@@](N)(c1ccc(Cl)cc1)c1ccc2c(c1)c(-c1cccc(Cl)c1)cc(=O)n2C [Tipifarnib] (top concentration 10000 nM)	7.8	11.8	4.5	9.6	6.8	9.9	9.3	7	3.1	6.3	2.8	11.2	6.9	14	-7.5	6.6	11.1	20.9	6.8	2
CC1(C)OCCn2c1nc1c(N3CCOCC3)nc(-c3cnc(N)nc3)nc12 [GDC-0084] (top concentration 10000 nM)	11.2	6.8	9	4.1	6.6	2.5	3.7	7	9.5	11	1.8	13.2	20.8	8.8	-4.9	7.5	4.8	5.1	6.9	5.2
COCCNCc1ccc(-c2cc3nccc(Oc4ccc(NC(=S)NC(=O)Cc5ccc(F)cc5)cc4F)c3s2)nc1 [Glesatinib] (top concentration 2500 nM)	0.94	-1.96	0.54	-1.66	2.74	0.34	4.54	-0.36	-0.36	2.44	0.44	6.14	3.74	4.44	-1.96	-1.76	10.4	0.54	-0.96	-1.96
Cc1cc(Nc2ncc(Cl)c(Nc3ccccc3S(=O)(=O)C(C)C)n2)c(OC(C)C)cc1C1CCNCC1 [Ceritinib] (top concentration 2500 nM)	-0.04	-3.44	2.86	-3.44	-3.44	-3.44	-3.44	-3.44	-2.04	-1.44	-3.44	-3.44	-2.04	-2.84	-3.44	2.86	4.36	-1.84	-3.44	-2.64
Cc1cn(-c2cc(NC(=O)c3ccc(C)c(Nc4nccc(-c5cnccn5)n4)c3)cc(C(F)(F)F)c2)cn1 [Radotinib] (top concentration 10000 nM)	10.1	0.4	0	0.7	22	0	19.6	0	9.2	0	13.8	10.3	9.4	0	1.3	0	43.3	3.3	1.2	0.4
CC1CCC(n2c3cnccc3c3cnc(Nc4ccc5c(n4)CCN(C(=O)CO)C5)nc32)CC1 (stereo not given) [AMG-925] (top concentration 1000 nM)	4.94	10.5	2.34	3.84	-0.66	6.34	4.34	4.94	8.24	3.44	6.14	10.9	14.7	3.44	1.94	6.14	2.04	5.74	2.34	-0.66
COc1cccc(OCCCN)c1-c1cc(Nc2cnc(C#N)cn2)n[nH]1 [Prexasertib] (top concentration 10000 nM)	20.1	21	4.24	19	8.94	13.8	20.7	13.4	20.4	19	19.6	20.4	20.9	17	-0.86	14.8	20.8	19.2	20.4	4.24
CNCc1ccc(-c2[nH]c3cc(F)cc4c3c2CCNC4=O)cc1 [Rucaparib] (top concentration 10000 nM)	9.02	2.72	0.92	-0.58	-0.38	-0.58	1.52	13.8	2.72	4.32	-0.38	5.12	1.02	1.52	-0.58	2.42	0.22	0.32	-0.58	-0.58
Cc1noc2c1-c1ccccc1C(c1ccc(Cl)cc1)=N[C@H]2CC(N)=O [CPI-0610] (top concentration 10000 nM)	-3	6.7	10.3	4.4	0	1.4	-2.8	17.9	8.4	-2.2	1.6	11.1	10.9	-1.2	-5.8	4.9	-0.6	4.4	-2.6	6.9
O=c1[nH]c(C2CCCN2)nc2c1oc1ccc(Cl)cc12 (stereo not given) (top concentration 10000 nM)	1	-0.5	2.1	0.1	-2.8	-1.9	6.7	-0.7	-1	0.2	-1.1	8.1	5.1	0.3	-2.8	-1.5	0.6	6.2	-2.8	-2.7
O=C(CCCCCCC(=O)Nc1ccc([C@H]2O[C@@H](CSc3nc(-c4ccccc4)c(-c4ccccc4)o3)C[C@@H](c3ccc(CO)cc3)O2)cc1)NO [Tubacin] (top concentration 10000 nM)	7.74	9.14	7.14	14.9	12.9	7.14	14	17.8	6.54	2.14	5.54	16.9	11.2	7.44	2.74	5.04	9.84	7.64	8.34	5.44
COc1ccccc1S(=O)(=O)Nc1ccc2c(c1)CN(C)C(=O)N2 [PFI-1] (top concentration 30000 nM)	3.5	8.6	8.7	0.8	-4.5	-1	-0.5	5.4	6	0.3	2.3	17.3	5.4	-0.6	-3.2	3.1	2	2.5	-0.9	2.9
